Assay results: patent US12590118B2, “Salt and crystal form of steroid derivative regulator” (Shanghai Hansoh Biomedical Co., Ltd., priority 2019, dated 2026)
Converted amounts (≈) assume the structure as drawn.

Key:
[1] = Solubility experiment (thermodynamic solubility at 37° C.); format: physicochemical; conditions: for solubility at 24 h: 37 °C, thermodynamic from solid
Experimental: The solubility of the free base and salt of the compound in water, Fasted State Simulated Gastric Fluid (FaSGF), Fasted State Simulated Intestinal Fluid (FaSSIF) and Fed State Simulated Intestinal Fluid (FeSSIF) was compared, so as to provide a basis for evaluating the druggability of the crystal form and salt.
About 2 to 3 mg of crystal forms I, II and III of the free base of Example 40 were weighed, suspended in 1 mL of Fasted State Simulated Gastric Fluid (FaSSGF), Fasted State Simulated Intestinal Fluid (FaSSIF), Fed State Simulated Intestinal Fluid (FeSSIF) and pure water respectively, and shaked for 24 hours. Thermodynamic solubility of the compound at 37° C. was determined using HPLC by external standard method.

[2] = Solid stability experiment (total impurities); format: physicochemical
Experimental: The physicochemical stability of candidate crystal forms I, II and III of the free base of Example 40 under influencing factors such as high temperature, high humidity and strong light was investigated, so as to provide a basis for the production and storage of the compound.
The related substance change of the free base was calculated by chromatographic peak area normalization method.

[3] = biological target: T1, human GABAA receptor α1, β2 and γ2 subunit (HEK293T cell line) (Homo sapiens, UniProt P14867+P47870); assay: Positive regulatory effect on GABAA receptor, manual patch clamp; format: cell-based; conditions: whole-cell current, 1 μM GABA
T1 construct: expressed in transfected cells
T1 sequence (P14867 28-456): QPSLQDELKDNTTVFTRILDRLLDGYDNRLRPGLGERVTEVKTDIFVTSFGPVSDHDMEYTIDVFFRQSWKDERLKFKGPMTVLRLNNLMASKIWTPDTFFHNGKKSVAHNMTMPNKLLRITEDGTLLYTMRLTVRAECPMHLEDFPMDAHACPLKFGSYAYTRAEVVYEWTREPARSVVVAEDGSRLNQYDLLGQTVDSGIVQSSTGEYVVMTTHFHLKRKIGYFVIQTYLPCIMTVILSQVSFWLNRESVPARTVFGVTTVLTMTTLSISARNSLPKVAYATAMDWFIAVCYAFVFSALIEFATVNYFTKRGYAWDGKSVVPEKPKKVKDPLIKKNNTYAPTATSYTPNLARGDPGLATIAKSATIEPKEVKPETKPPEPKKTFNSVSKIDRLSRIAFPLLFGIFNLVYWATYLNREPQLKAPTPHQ
T1 sequence (P47870 25-512 limits assumed): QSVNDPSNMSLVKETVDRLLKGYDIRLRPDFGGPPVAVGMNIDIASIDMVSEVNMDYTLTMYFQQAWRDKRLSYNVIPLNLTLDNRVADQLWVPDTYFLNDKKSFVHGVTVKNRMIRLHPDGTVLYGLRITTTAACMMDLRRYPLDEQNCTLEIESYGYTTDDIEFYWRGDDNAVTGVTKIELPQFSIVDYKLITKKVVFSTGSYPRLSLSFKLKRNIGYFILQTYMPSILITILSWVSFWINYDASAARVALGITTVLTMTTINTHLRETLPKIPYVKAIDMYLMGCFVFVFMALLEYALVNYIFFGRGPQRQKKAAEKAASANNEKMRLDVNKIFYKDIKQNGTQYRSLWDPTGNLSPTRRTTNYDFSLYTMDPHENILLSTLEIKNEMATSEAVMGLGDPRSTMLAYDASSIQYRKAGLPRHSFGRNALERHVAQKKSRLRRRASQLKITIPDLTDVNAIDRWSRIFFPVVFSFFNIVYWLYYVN
T1 sequence (P18507 40-475 partner): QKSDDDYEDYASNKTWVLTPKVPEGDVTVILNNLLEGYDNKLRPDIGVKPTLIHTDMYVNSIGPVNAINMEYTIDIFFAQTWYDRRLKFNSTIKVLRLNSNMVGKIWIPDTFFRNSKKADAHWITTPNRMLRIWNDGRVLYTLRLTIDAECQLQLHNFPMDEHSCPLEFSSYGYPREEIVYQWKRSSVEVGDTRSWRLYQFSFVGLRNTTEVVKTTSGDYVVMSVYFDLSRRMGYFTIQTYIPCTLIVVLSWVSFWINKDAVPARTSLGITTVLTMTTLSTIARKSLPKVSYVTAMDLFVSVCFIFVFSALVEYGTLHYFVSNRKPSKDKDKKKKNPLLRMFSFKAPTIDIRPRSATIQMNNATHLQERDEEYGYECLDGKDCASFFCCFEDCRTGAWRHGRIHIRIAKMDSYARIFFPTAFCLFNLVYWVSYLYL
Experimental: The objective of this test example is to determine the positive regulatory effect of the compound on GABAA receptor by the electrophysiological manual patch clamp method.
Manual patch clamp system HEKA EPC10 USB signal amplifier and digital conversion system (purchased from HEKA Electronics, Germany), centrifuge (Eppendorf, etc.), carbon dioxide incubator (purchased from Thermo, etc.), biological safety cabinet (Thermo, etc.), pipette (purchased from Eppendorf, etc.).
The cells were grown in a culture dish with DMEM medium (purchased from Invitrogen), and cultured in an incubator at 37° C. and 5% CO2. Before the electrophysiological experiment, the cells were transferred to a round glass slide placed in the culture dish, and grown in the same culture medium and under the same culture condition as above. The density of cells on each round glass slide should meet the requirement that most cells were independent and individual.
Each test compound was diluted in gradient with DMSO to obtain a stock solution, which was then diluted with extracellular fluid by 1,000-fold to obtain the final test concentration. The final concentration of DMSO in the compound solution with each concentration was 0.1%. The experiment used the manual patch clamp system HEKA EPC10 USB signal amplifier and digital conversion system for whole cell current recording. The round glass slide with HEK293T GABAA cells grown on the surface was taken out of the culture dish, and placed in the electrophysiological recording tank under the inverted microscope. The recording tank was continuously perfused with extracellular fluid. During the experiment, the whole-cell current recording technology was used to record the chloride current of the GABAA channel. 1 μM GABA was used to activate the chloride current of the GABAA channel of each cell as an initial control. 1 μM GABA acted on the cell through the drug perfusion system to induce the chloride current of the GABAA channel, the action time was about 3 to 5 seconds, and the current value was used as the initial control value. The test concentration of compound was perfused and incubated for 2 to 5 minutes. […] GABA solution (mixed with the test concentration of compound) was given to the cells to observe the enhancement effect of the test compound on the current induced by 1 μM GABA. When the cell state was stable, the test compound acted on the same cell from low to high concentration to record the enhancement effect of the induced current.
The experimental data was analyzed by HEKA Patchmaster, Microsoft Excel and the data analysis software provided by Graphpad Prism.

Structure (SMILES)	solubility at 24 h ([1]; FaSSGF (Fasted State Simulated Gastric Fluid), fassgf or other biorelevant, FaSSGF) [µg/mL]	solubility at 24 h ([1]; FaSSIF (Fasted State Simulated Intestinal Fluid), fassif) [µg/mL]	solubility at 24 h ([1]; FeSSIF (Fed State Simulated Intestinal Fluid), fessif) [µg/mL]	solubility compared among the three crystal forms (in words) ([1]; four media)	solubility at 24 h ([1]; pure water, water) [µg/mL]	Total impurities (%) ([2]; 50° C./75% RH Open, 5 d)	Total impurities (%) ([2]; 50° C./75% RH Open, 10 d)	Total impurities (%) ([2]; 60° C. Sealed, 5 d)	Total impurities (%) ([2]; 60° C. Sealed, 10 d)	Total impurities (%) ([2]; Initial sample, 0 d)	Total impurities (%) ([2]; Light 5k lux Sealed, 10 d)	Total impurities (%) ([2]; Light 5k lux Sealed, column printed 10 d)	Total impurities (%) ([2]; RT/90% RH Open, 5 d)	Total impurities (%) ([2]; RT/90% RH Open, column printed 5 d)	change of impurities (in words) ([2]; high temperature, high humidity and light for 10 days)	EC50 [3] [nM]
C[C@@H]1C[C@H](C(=O)Cn2ccc(C#N)n2)[C@@]2(C)CC[C@H]3[C@@H](CC[C@@H]4C[C@](C)(O)CC[C@@H]43)[C@H]12 [Crystal form I, 1-(2-((3R,5R,8R,9R,10S,13S,14S,15R,17S)-3-Hydroxy-3,13,15-trimethylhexadecahydro-1H-cyclopenta[a]phenanthren-17-yl)-2-oxoethyl)-1H-pyrazole-3-carbonitrile]	< 1	3.26 (≈ 7.7 µM)	18.2 (≈ 43 µM)	the lowest	< 1	0.56	0.59	0.55	0.56	0.59	0.56	0.57	0.56	0.56	the impurities did not increase	–
C[C@@H]1C[C@H](C(=O)Cn2ccc(C#N)n2)[C@@]2(C)CC[C@H]3[C@@H](CC[C@@H]4C[C@](C)(O)CC[C@@H]43)[C@H]12 [Example 40, 1-(2-((3R,5R,8R,9R,10S,13S,14S,15R,17S)-3-Hydroxy-3,13,15-trimethylhexadecahydro-1H-cyclopenta[a]phenanthren-17-yl)-2-oxoethyl)-1H-pyrazole-3-carbonitrile]	–	–	–	–	–	–	–	–	–	–	–	–	–	–	–	57
